Experimental data published in patent US20090318493A1 (Roche Palo Alto LLC, priority 2008, published 2009).
Read-outs that look alike come from different tables or passages of the source.

Columns and labels:
Type in all cases: binding
hSERT transporter = target: T1, hSERT transporter (Homo sapiens, UniProt P31645); experiment: Human serotonin transporter (hSERT) scintillation proximity assay, competition with [3H]-Citalopram
T1 construct: expressed in transfected cells; membranes prepared
From the text: Screening for Human Serotonin Transporter (hSERT) Antagonists Using a Scintillation Proximity Assay (SPA)
The screening assay of this example was used to determine the affinity of ligands at the hSERT transporter by competition with [^3H]-Citalopram.
Scintillation Proximity Assay (SPA) works by bringing radioligand within close proximity to the bead's scintillant to stimulate light emission. In this assay, the receptor-containing membranes were pre-coupled to the SPA beads and the binding of the appropriate radioligand to the transporter was measured. The light emission was proportional to the amount of bound radioligand. Unbound radioligand produced no signal as a result of distant proximity to scintillant (lack of energy transfer).
Cells are released from culture flasks using PBS for 1-2 minutes. The cells were subsequently centrifuged at 1000 g's for 5 minutes and resuspended in PBS prior to being used in the membrane preparation.
(§1) Cell membranes were prepared using a membrane preparation buffer of 50 mM TRIS (pH 7.4). Cell membranes were prepared from a single cube (7.5×10^9 cells total). Cells were homogenized using a Polytron (setting medium for a 4 second burst). The homogenate was then centrifuged at 48,000×g for 15 minutes, the supernatant subsequently removed and discarded, and the pellet resuspended with fresh buffer. After a second centrifugation, the pellet was re-homogenized and brought to a final volume determined during the assay. Typically, membrane portions were aliquoted in 3 mg/ml (w:v). and stored at −80° C.
Compounds of the invention were diluted from 10 mM to 0.1 nM FAC (10 point curves, whole log/half log dilutions) via a Beckman Biomek 2000 using a serial dilution protocol. The test compounds were then transferred (20 μl/well) and the [^3H]-Citalopram radioligand was added at 50 μl/well. Membrane and beads were prepared to a ratio of 10 μg: 0.7 mg, with 0.7 mg PVT-WGA Amersham beads (Cat# RPQ0282V) added per well. 130 μl of the membrane: bead mixture was added to the assay plate.
The % inhibition was calculated for each compound tested [(Compound counts per minute (CPM) at maximum concentration-Non-Specific CPM)/Total CPM*100].
(§2) where max=total binding, min=non specific binding, x=concentration (M) of the tested compound and n=Hill slope. The inhibition dissociation constant (Ki) of each compound was determined according to the method of Cheng-Prusoff and then converted into negative logarithm (pKi) of the Ki.

hDAT = target: T2, hDAT (Homo sapiens, UniProt Q01959); experiment: Human dopamine transporter scintillation proximity assay, competition with [3H]-Vanoxerine
T2 construct: expressed in transfected cells; plated whole cells
Description: This assay was used to determine the affinity of ligands for the dopamine transporter by competition with [^3H]-Vanoxerine.
Cells were plated four hours prior to experiment by placing approximately 30,000 cells per well (in PBS) on white, opaque Cell-Tak coated 96 well plates. Extra buffer was apriated from the cell plates using an ELx405 plate washer.
Compounds of the invention were diluted from 10 mM to 0.1 nM FAC (10 point curves, whole log/half log dilutions) via a Beckman Biomek 2000 using a 10-point dilution protocol. The mixtures were allowed to stand at room temperature for 30 minutes, and were then counted on a Packard TopCount LCS, a generic SPA counting protocol settings, Count Time (min.): 0.40, Background Subtract: none, Half-Life Correction: none, Quench Indicator: tSIS, Platemap blank subtraction: none, Cross talk reduction: Off).
The % inhibition was calculated for each compound tested [(Compound CPM at maximum concentration-Non-Specific CPM)/Total CPM*100].
as §2

hNET transporter = target: T3, hNET transporter (Homo sapiens, UniProt P23975); experiment: Human norepinephrine transporter (hNET) scintillation proximity assay, competition with [3H]-Nisoxetine
T3 construct: expressed in transfected cells; membranes prepared
Description: This assay was used to determine the affinity of ligands for the hNET transporter by competition with [^3H]-Nisoxetine. As in the hSERT assay of the above example, receptor-containing membranes were pre-coupled to the SPA beads and the binding of the appropriate radioligand to the transporter was measured. The light emission was proportional to the amount of bound radioligand, with unbound radioligand producing no signal.
HEK-293 cells (Tatsumi et al., Eur. J. Pharmacol. 1997, 30, 249-258) stably expressing recombinant hNET (Clone: HEK-hNET #2) were maintained with media (DMEM hi glucose with 10% FBS, 300 μg/ml G418 and 2 mM L-Glutamine) and incubated at 37° C. with 5% CO2. Cells were released from culture flasks using PBS for 1-2 minutes. The cells were subsequently centrifuged at 1000 g's for 5 minutes and resuspended in PBS prior to being used in the membrane preparation.
as §1, with “(7.5×10^9cells” for “(7.5×10^9 cells”, “3-6 mg/mil” for “3 mg/ml”
^3[H] […] Compounds of the invention were diluted from 10 mM to 0.1 nM FAC (10 point curves, whole log /half log dilutions) via a Beckman Biomek 2000 using a serial dilution protocol. The test compounds were then transferred (20 μl/well) and the radioligand was added at 50 μl/well. Membrane and beads were prepared to a ratio of 10 μg: 0.7 mg, with 0.7 mg PVT-WGA Amersham beads (Cat# RPQ0282V) added per well. 130 μl of the membrane: bead mixture was added to the assay plate. The mixtures were allowed to stand at room temperature for one hour, and were then counted on a Packard TopCount LCS, a generic SPA counting protocol settings (Energy Range: Low, Efficiency Mode: Normal, Region A: 1.50-35.00, Region B: 1.50-256.00, Count Time (min.): 0.40, Background Subtract: none, Half-Life Correction: no, Quench Indicator: tSIS, Platemap blank subtraction: No, Cross talk reduction: Off).
The % inhibition was calculated for each compound tested [(Compound CPM at maximum concentration-Non-Specific CPM)/Total CPM*100]. The concentration producing 50% inhibition (IC50) was determined using an iterative non-linear curve fitting technique with Activity Base/Xlfit using the following equation:
as §2

[1] = Table 1, read-out: pIC50 SERT (converted)
[2] = Table 1, read-out: pIC50 DAT (converted)
[3] = Table 1, read-out: pIC50 NET (converted)

T2 sequence (Q01959 whole entry): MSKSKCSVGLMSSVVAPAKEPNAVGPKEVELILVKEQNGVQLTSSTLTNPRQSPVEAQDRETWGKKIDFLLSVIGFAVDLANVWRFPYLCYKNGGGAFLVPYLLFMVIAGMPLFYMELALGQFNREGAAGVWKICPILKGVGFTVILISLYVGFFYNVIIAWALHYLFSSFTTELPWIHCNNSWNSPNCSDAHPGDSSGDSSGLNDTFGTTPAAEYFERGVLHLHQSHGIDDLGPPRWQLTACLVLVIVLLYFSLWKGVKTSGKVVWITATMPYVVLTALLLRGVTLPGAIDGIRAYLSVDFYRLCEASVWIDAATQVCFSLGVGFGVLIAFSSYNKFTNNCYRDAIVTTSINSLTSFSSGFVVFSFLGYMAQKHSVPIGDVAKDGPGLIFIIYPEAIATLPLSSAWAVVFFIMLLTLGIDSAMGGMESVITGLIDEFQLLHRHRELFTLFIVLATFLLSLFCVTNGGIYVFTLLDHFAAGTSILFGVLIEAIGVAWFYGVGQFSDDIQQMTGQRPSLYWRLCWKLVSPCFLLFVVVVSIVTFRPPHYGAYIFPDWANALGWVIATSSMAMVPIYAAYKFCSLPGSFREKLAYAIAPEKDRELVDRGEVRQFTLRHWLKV
T3 sequence (P23975 whole entry): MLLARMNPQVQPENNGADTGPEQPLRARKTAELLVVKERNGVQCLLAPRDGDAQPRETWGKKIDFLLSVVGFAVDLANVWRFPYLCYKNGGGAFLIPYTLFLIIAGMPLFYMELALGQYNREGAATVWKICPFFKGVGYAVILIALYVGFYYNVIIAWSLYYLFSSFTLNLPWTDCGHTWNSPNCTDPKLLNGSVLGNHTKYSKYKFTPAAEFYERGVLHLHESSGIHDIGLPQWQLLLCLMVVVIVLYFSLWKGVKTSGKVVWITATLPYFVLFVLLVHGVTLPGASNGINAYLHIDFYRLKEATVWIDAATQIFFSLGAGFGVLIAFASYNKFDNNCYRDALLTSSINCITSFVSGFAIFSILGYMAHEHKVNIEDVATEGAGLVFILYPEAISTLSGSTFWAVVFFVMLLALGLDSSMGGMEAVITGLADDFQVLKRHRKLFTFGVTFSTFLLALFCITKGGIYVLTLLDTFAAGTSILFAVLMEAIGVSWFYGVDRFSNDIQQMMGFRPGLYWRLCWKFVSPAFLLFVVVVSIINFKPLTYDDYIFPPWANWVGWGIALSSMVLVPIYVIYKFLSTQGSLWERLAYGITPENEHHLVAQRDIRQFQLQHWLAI
T1 sequence (P31645 whole entry): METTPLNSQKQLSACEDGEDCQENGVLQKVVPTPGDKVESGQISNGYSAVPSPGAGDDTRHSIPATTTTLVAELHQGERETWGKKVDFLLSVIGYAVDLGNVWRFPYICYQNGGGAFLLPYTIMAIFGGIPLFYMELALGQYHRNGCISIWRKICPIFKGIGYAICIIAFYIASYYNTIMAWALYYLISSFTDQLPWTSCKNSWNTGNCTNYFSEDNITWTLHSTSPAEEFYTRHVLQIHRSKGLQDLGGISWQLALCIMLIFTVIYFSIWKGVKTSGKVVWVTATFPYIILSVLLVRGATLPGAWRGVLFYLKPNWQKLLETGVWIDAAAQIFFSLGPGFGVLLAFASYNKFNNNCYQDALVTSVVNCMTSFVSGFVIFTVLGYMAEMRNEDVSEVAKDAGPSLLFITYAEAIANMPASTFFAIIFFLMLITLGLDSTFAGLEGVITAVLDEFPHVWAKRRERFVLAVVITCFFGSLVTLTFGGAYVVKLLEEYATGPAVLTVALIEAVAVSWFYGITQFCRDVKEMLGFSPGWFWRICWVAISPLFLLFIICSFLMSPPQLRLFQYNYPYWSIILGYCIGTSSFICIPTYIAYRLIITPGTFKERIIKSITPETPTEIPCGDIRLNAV

| IC50 (hSERT transporter; [1]) [nM] | IC50 (hDAT; [2]) [nM] | IC50 (hNET transporter; [3]) [nM] | Structure (SMILES) | IC50 (hSERT transporter) [nM] | IC50 (hNET transporter) [nM] | IC50 (hDAT) [nM] |
| --- | --- | --- | --- | --- | --- | --- |
| 2.4 | 34.7 | 2.57 | CC(C)CC1(C(=O)c2ccc(Cl)c(Oc3ccccc3)c2)CCNCC1 [Compound 45, (4-Chloro-3-phenoxy-phenyl)-(4-isobutyl-piperidin-4-yl)-methanone] | – | – | – |
| 120 | 1410 | 77.6 | CC(C)(C)CCC1(C(=O)c2ccc(Cl)c(Oc3ccc(F)cc3)c2)CCNC1 (stereo not drawn) [Compound 8, [4-Chloro-3-(4-fluoro-phenoxy)-phenyl]-[3-(3,3-dimethyl-butyl)-pyrrolidin-3-yl]-methanone] | – | – | – |
| 7.08 | 30.2 | 11.5 | CCCC1(C(=O)c2ccc(Cl)c(Oc3ccccc3)c2)CCNCC1 [Compound 46, (4-Chloro-3-phenoxy-phenyl)-(4-propyl-piperidin-4-yl)-methanone] | – | – | – |
| 0.501 | 2.24 | 66.1 | CC1(CC2(C(=O)c3ccc(Cl)c(Cl)c3)CCNCC2)CC1 [Compound 34, (3,4-Dichloro-phenyl)-[4-(1-methyl-cyclopropylmethyl)-piperidin-4-yl]-methanone] | – | – | – |
| 166 | 331 | 200 | CCCC1(C(=O)c2ccc(Cl)c(Oc3ccc(C(F)(F)F)cc3)c2)CCNC1 (stereo not drawn) [Compound 32, [4-Chloro-3-(4-trifluoromethyl-phenoxy)-phenyl]-(3-propyl-pyrrolidin-3-yl)-methanone] | – | – | – |
| 0.589 | 10.5 | 45.7 | Cc1ccc(C(=O)C2(CC(C)C)CCNCC2)cc1Cl [Compound 35, (3-Chloro-4-methyl-phenyl)-(4-isobutyl-piperidin-4-yl)-methanone] | – | – | – |

| Structure (SMILES) | IC50 (hSERT transporter; [1]) [nM] | IC50 (hDAT; [2]) [nM] | IC50 (hNET transporter; [3]) [nM] | IC50 (hSERT transporter) [nM] | IC50 (hNET transporter) [nM] | IC50 (hDAT) [nM] |
| --- | --- | --- | --- | --- | --- | --- |
| CC(C)C[C@@]1(C(=O)c2ccc(Cl)c(Cl)c2N)CCNC1 [Compound 2, (2-Amino-3,4-dichloro-phenyl)-((R)-3-isobutyl-pyrrolidin-3-yl)-methanone] | – | 692 | – | 2.19 | 38 | – |
| CCCC1(C(=O)c2ccc(Cl)c(Sc3ccccc3)c2)CCNC1 (stereo not drawn) [Compound 15, (4-Chloro-3-phenylsulfanyl-phenyl)-(3-propyl-pyrrolidin-3-yl)-methanone] | – | 110 | – | 34.7 | 87.1 | – |
| CC(C)C[C@@]1(C(=O)c2cc(F)c(N)c(Cl)c2)CCNC1 [Compound 23] | – | – | 3.98 | 4.79 | – | 6.17 |
| CCCC[C@@]1(C(=O)c2ccc(Cl)c(Cl)c2)CC[C@@H]2CC[C@H]1N2C (mixture of isomers) [Compound 54, ((1R,2R,SR)-2-Butyl-8-methyl-8-aza-bicyclo[3.2.1]oct-2-yl)-(3,4-dichloro-phenyl)-methanone] | – | – | 501 | 331 | – | 28.2 |
| CC(C)C[C@]1(C(=O)c2ccc(N)c(Cl)c2)CCNC1 [Compound 28, (4-Amino-3-chloro-phenyl)-((S)-3-isobutyl-pyrrolidin-3-yl)-methanone] | – | – | 3.02 | 0.117 | – | 0.832 |
| CC(C)CC1(C(=O)c2cc(F)c(N)c(Cl)c2)CCNC1 (stereo in doubt) [Compound 24, (4-Amino-3-chloro-5-fluoro-phenyl)-((R)-3-isobutyl-pyrrolidin-3-yl)-methanone] | – | – | 20 | 24.5 | – | 25.1 |
| CC(C)CCC1(C(=O)c2ccc(Cl)c(Oc3ccccc3)c2)CCNC1 (stereo not drawn) [Compound 12] | – | 1480 | – | 43.7 | 12 | – |
